The target in this experiment is Alkaline phosphatase, tissue-nonspecific isozyme (Homo sapiens) (UniProt P05186). Kind of experiment: TNAP enzyme activity modulation, counter to mouse IAP activators, SAR follow-up, selectivity assay for mouse IAP activator project, biochemical (AID 493133). The conditions noted are these: purified human TNAP enzyme, phosphatase activity counter-screen. (Counterscreens check selectivity or assay interference.)

The results in this text go back to PubChem BioAssay AID493133 (Sanford-Burnham Center for Chemical Genomics, 2011).

The source made the active and inactive calls. No rule for the calls is given here. Some results are limits rather than exact numbers.

Sequence of Alkaline phosphatase, tissue-nonspecific isozyme (Homo sapiens) (P05186 whole entry, looked up): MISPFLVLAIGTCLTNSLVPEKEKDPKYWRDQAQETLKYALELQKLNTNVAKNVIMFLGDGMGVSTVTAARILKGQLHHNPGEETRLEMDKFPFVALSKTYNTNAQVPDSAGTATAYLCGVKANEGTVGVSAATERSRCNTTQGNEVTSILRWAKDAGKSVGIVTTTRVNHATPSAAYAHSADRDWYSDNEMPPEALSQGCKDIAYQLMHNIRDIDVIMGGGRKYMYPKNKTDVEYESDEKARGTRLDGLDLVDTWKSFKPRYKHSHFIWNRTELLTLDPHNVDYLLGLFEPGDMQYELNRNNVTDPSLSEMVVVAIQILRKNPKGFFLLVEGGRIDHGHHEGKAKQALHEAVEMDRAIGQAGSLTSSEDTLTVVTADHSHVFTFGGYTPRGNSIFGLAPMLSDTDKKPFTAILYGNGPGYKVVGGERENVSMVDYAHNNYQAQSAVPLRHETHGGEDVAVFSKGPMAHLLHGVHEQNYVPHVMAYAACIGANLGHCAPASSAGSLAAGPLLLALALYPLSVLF

`CCOc1cccc(NC(=O)CSc2sc3c(O)cc(=O)[nH]c3c2C#N)c1`: the EC50 – broadly, the midpoint of the concentration-response curve – is > 100 µM (inactive).

Take `CC(C(=O)Nc1ccccc1C(=O)O)N1C(=O)/C(=C\c2ccco2)SC1=S` (configuration not stated): the EC50 was > 100 µM (inactive).

Take `CCc1ccc(NC(=O)CN(C)S(=O)(=O)c2ccc3[nH]c(=O)oc3c2)cc1`: the EC50 was > 100 µM (inactive).

With `CCCSc1nnc(NC(=O)CSc2sc3c(O)cc(=O)[nH]c3c2C#N)s1`, the EC50 is > 100 µM (inactive).

In the case of `COc1cccc(CNC(=O)CCNS(=O)(=O)c2ccc3[nH]c(=O)oc3c2)c1`, the EC50 is > 100 µM (inactive).

With `O=C(N/N=C/C1CC2CCC1C2)c1cc(O)c(O)c(O)c1` (configuration not stated), the EC50 is > 100 µM (inactive).

Take `CCN(CC)C(=O)CSc1sc2c(O)cc(=O)[nH]c2c1C#N`: the EC50 is > 100 µM (inactive).

With `CCOc1ccccc1CNC(=O)CCNS(=O)(=O)c1ccc2[nH]c(=O)oc2c1`, the EC50 is > 100 µM (inactive).

For the molecule `O=C(CCN1C(=O)/C(=C/c2ccco2)SC1=S)Nc1ccc(O)cc1C(=O)O`, the EC50 was > 100 µM (inactive).

In the case of `O=C(CN1C(=O)/C(=C\c2ccco2)SC1=S)Nc1ccc(C(=O)O)cc1`, the EC50 is > 100 µM (inactive).

Turning to `S=C(NCCC(c1ccccc1)c1ccccc1)Nc1ccc(Cl)cc1Cl`, the EC50 was 56 µM.

`COc1ccc(NC(=O)CCNS(=O)(=O)c2ccc3[nH]c(=O)oc3c2)cc1Cl`: the EC50 is > 100 µM (inactive).

As for `O=C(CN1C(=O)/C(=C\c2ccco2)SC1=S)Nc1ccc(O)cc1C(=O)O`, the EC50 was > 100 µM (inactive).

Turning to `O=C(c1ccco1)N1CCN(S(=O)(=O)c2ccc3[nH]c(=O)oc3c2)CC1`, the EC50 was > 100 µM (inactive).

Take `O=C(CN1C(=O)/C(=C/c2ccco2)SC1=S)Nc1ccc(O)c(C(=O)O)c1`: the EC50 was > 100 µM (inactive).

With `COc1ccc(OC)c(NC(=O)CCNS(=O)(=O)c2ccc3[nH]c(=O)oc3c2)c1`, the EC50 is > 100 µM (inactive).

`O=C(CCN1C(=O)/C(=C\c2ccco2)SC1=S)Nc1ccc(C(=O)O)c(O)c1`: the EC50 was > 100 µM (inactive).

Take `O=C(CN1C(=O)/C(=C/c2ccco2)SC1=S)N[C@@H]1CSC[C@@H]1O`: the EC50 is > 100 µM (inactive).

In the case of `COc1ccc(NC(=O)CSc2sc3c(O)cc(=O)[nH]c3c2C#N)c(OC)c1`, the EC50 was > 100 µM (inactive).

For the molecule `O=C(CN1C(=O)/C(=C/c2ccco2)SC1=S)NCCc1ccc(O)cc1`, the EC50 was > 100 µM (inactive).

On to `N#Cc1c(SCC(=O)Nc2nc3ccc(Br)cc3s2)sc2c(O)cc(=O)[nH]c12`, for which the EC50 is > 100 µM (inactive).

For `COc1cc(C(=O)NNC(=O)c2n[nH]c3ccccc23)cc(OC)c1OC`, the EC50 is 75 µM.

For the molecule `COc1ccccc1NC(=O)CSc1sc2c(O)cc(=O)[nH]c2c1C#N`, the EC50 is > 100 µM (inactive).

Turning to `CCc1nnc(NC(=O)CSc2sc3c(O)cc(=O)[nH]c3c2C#N)s1`, the EC50 is > 100 µM (inactive).

`CC(C(=O)NCCc1ccc(O)cc1)N1C(=O)/C(=C/c2ccco2)SC1=S` (configuration not stated): the EC50 was > 100 µM (inactive).

As for `N#Cc1c(SCC(=O)NCc2ccc3c(c2)OCO3)sc2c(O)cc(=O)[nH]c12`, the EC50 was > 100 µM (inactive).

For the molecule `O=C(CN1C(=O)/C(=C/c2ccco2)SC1=S)Nc1ccc(C(=O)O)cc1`, the EC50 was > 100 µM (inactive).

Take `O=C(NNC(=O)c1cc(O)c(O)c(O)c1)NC1CCCCC1`: the EC50 was > 100 µM (inactive).

As for `COc1cc([N+](=O)[O-])ccc1NC(=S)NCCC(c1ccccc1)c1ccccc1`, the EC50 was > 100 µM (inactive).

For `COc1cc(C(=O)NN=Cc2ccccn2)cc(OC)c1OC`, the EC50 is 31 µM.

For the molecule `O=C(N/N=C/c1ccsc1)c1cc(O)c(O)c(O)c1`, the EC50 is > 100 µM (inactive).

Take `COc1ccc(N2CCN(C(=O)CN3C(=O)/C(=C\c4ccco4)SC3=S)CC2)cc1`: the EC50 is > 100 µM (inactive).

On to `CN1CCC(=NNC(=O)c2cc(O)c(O)c(O)c2)CC1`, for which the EC50 is > 100 µM (inactive).

As to `O=C(CCCN1C(=O)/C(=C/c2ccco2)SC1=S)Nc1ccccc1`, the EC50 is > 100 µM (inactive).

`CSc1cccc(NC(=O)CCNS(=O)(=O)c2ccc3[nH]c(=O)oc3c2)c1`: the EC50 was > 100 µM (inactive).

Consider `COc1cc(Cl)c(C)cc1NC(=O)CSc1sc2c(O)cc(=O)[nH]c2c1C#N`, for which the EC50 was > 100 µM (inactive).

Regarding `O=[N+]([O-])c1ccc(NC(=S)NCCC(c2ccccc2)c2ccccc2)cc1`, the EC50 was > 100 µM (inactive).

On to `O=C(CCN1C(=O)/C(=C/c2ccco2)SC1=S)Nc1ccc(C(=O)O)c(O)c1`, for which the EC50 was > 100 µM (inactive).

Turning to `Cc1ccc(/C=C2\SC(=S)N(C3CCS(=O)(=O)C3)C2=O)o1` (configuration not stated), the EC50 is > 100 µM (inactive).

For the molecule `Cc1ccc(NC(=O)CSc2sc3c(O)cc(=O)[nH]c3c2C#N)c(F)c1`, the EC50 was > 100 µM (inactive).

Turning to `CC(C)c1ccc(NC(=O)CCNS(=O)(=O)c2ccc3[nH]c(=O)oc3c2)cc1`, the EC50 is > 100 µM (inactive).

As to `Cc1cc(NC(=O)CSc2sc3c(O)cc(=O)[nH]c3c2C#N)ccc1Br`, the EC50 is > 100 µM (inactive).

Consider `O=C1/C(=C/c2ccco2)SC(=S)N1C1CCS(=O)(=O)C1` (configuration not stated), for which the EC50 was > 100 µM (inactive).

`CC(C(=O)NCCc1ccc(O)c(O)c1)N1C(=O)/C(=C\c2ccco2)SC1=S` (configuration not stated): the EC50 is > 100 µM (inactive).

In the case of `O=C(CN1C(=O)/C(=C/c2ccco2)SC1=S)Nc1ccc2nccnc2c1`, the EC50 was > 100 µM (inactive).

In the case of `N#Cc1c(SCC(=O)Nc2ccccc2C(F)(F)F)sc2c(O)cc(=O)[nH]c12`, the EC50 was > 100 µM (inactive).

Regarding `CC(C)C(C(=O)NC1CCS(=O)(=O)C1)N1C(=O)/C(=C\c2ccco2)SC1=S` (configuration not stated), the EC50 was > 100 µM (inactive).

For `O=C(CN1C(=O)/C(=C\c2ccco2)SC1=S)Nc1cccc(C(=O)O)c1`, the EC50 is > 100 µM (inactive).

Take `Cc1ccc(/C=N/NC(=O)c2cc(O)c(O)c(O)c2)cc1`: the EC50 was > 100 µM (inactive).

As for `O=C(CN1C(=O)/C(=C\c2ccco2)SC1=S)Nc1ccccc1C(=O)O`, the EC50 is > 100 µM (inactive).

On to `COC(=O)NNC(=O)c1cc(OC)c(OC)c(OC)c1`, for which the EC50 was > 100 µM (inactive).

As for `CCOC(=O)N1CCC(NC(=O)CSc2sc3c(O)cc(=O)[nH]c3c2C#N)CC1`, the EC50 was > 100 µM (inactive).

As to `COc1cccc(NC(=O)CN(C)S(=O)(=O)c2ccc3[nH]c(=O)oc3c2)c1`, the EC50 was > 100 µM (inactive).

Regarding `Cc1ccc(NC(=O)CCNS(=O)(=O)c2ccc3[nH]c(=O)oc3c2)cc1`, the EC50 is > 100 µM (inactive).

Consider `CC(C(=O)Nc1ccc(C(=O)O)cc1)N1C(=O)/C(=C\c2ccco2)SC1=S` (configuration not stated), for which the EC50 was > 100 µM (inactive).

With `O=C(O)CC(C(=O)O)N1C(=O)/C(=C/c2ccc(-c3nc4ccccc4s3)o2)SC1=S` (configuration not stated), the EC50 was > 100 µM (inactive).

For the molecule `N#Cc1cccc(NC(=O)CSc2sc3c(O)cc(=O)[nH]c3c2C#N)c1`, the EC50 was > 100 µM (inactive).

With `O=S(=O)(Nc1ncccn1)c1ccc(NC(=S)NCCC(c2ccccc2)c2ccccc2)cc1`, the EC50 was > 100 µM (inactive).

As to `CC(C)NC(=O)CSc1sc2c(O)cc(=O)[nH]c2c1C#N`, the EC50 was > 100 µM (inactive).

As to `COc1cc(C(=O)NNC(=S)NC(=O)c2ccc(Cl)cc2)cc(OC)c1OC`, the EC50 is 29.4 µM.

As to `COc1ccc(CNC(=O)CSc2sc3c(O)cc(=O)[nH]c3c2C#N)cc1OC`, the EC50 is > 100 µM (inactive).

Take `CCN(C(=O)C(C)N1C(=O)/C(=C/c2ccco2)SC1=S)C1CCS(=O)(=O)C1` (configuration not stated): the EC50 is > 100 µM (inactive).

Regarding `COc1ccc(OC)c(NC(=O)CSc2sc3c(O)cc(=O)[nH]c3c2C#N)c1`, the EC50 is > 100 µM (inactive).

Take `N#Cc1c(SCC(=O)Nc2nncs2)sc2c(O)cc(=O)[nH]c12`: the EC50 was > 100 µM (inactive).

For the molecule `COc1cc(C(=O)NNc2nc3cc4c(cc3s2)OCO4)cc(OC)c1OC`, the EC50 is 18.4 µM.

With `O=C(C1CCN(S(=O)(=O)c2ccc3[nH]c(=O)oc3c2)CC1)N1CC=C(c2ccccc2)CC1`, the EC50 was > 100 µM (inactive).

`O=C(N/N=C/C1CC=CCC1)c1cc(O)c(O)c(O)c1` (configuration not stated): the EC50 is > 100 µM (inactive).

As for `COC(=O)c1ccc(C)c(NC(=O)CSc2sc3c(O)cc(=O)[nH]c3c2C#N)c1`, the EC50 was > 100 µM (inactive).

`Cc1ccc(NC(=O)CCNS(=O)(=O)c2ccc3[nH]c(=O)oc3c2)cc1F`: the EC50 is > 100 µM (inactive).

For `O=C(NN=Cc1cccnc1)c1cc(O)c(O)c(O)c1`, the EC50 is > 100 µM (inactive).

Take `N#Cc1cccc(NC(=O)CCNS(=O)(=O)c2ccc3[nH]c(=O)oc3c2)c1`: the EC50 is > 100 µM (inactive).

Take `Cc1ccc(NC(=O)CCNS(=O)(=O)c2ccc3[nH]c(=O)oc3c2)c(C)c1`: the EC50 was > 100 µM (inactive).

`O=C(CCNS(=O)(=O)c1ccc2[nH]c(=O)oc2c1)Nc1cccc(-c2ccno2)c1`: the EC50 is > 100 µM (inactive).

For `CCSc1nnc(NC(=O)CSc2sc3c(O)cc(=O)[nH]c3c2C#N)s1`, the EC50 was > 100 µM (inactive).

For the molecule `O=C(CCCN1C(=O)/C(=C\c2ccco2)SC1=S)Nc1ccc(O)cc1C(=O)O`, the EC50 is > 100 µM (inactive).

`CCOC(=O)NC(=O)CSc1sc2c(O)cc(=O)[nH]c2c1C#N`: the EC50 is > 100 µM (inactive).

Turning to `COc1ccccc1CNC(=O)CCNS(=O)(=O)c1ccc2[nH]c(=O)oc2c1`, the EC50 was > 100 µM (inactive).

`O=C(N/N=C/c1ccco1)c1cc(O)c(O)c(O)c1`: the EC50 is > 100 µM (inactive).

On to `N#Cc1c(SCC(=O)Nc2nc3ccccc3s2)sc2c(O)cc(=O)[nH]c12`, for which the EC50 was > 100 µM (inactive).

`O=C(CN1C(=O)/C(=C/c2ccco2)SC1=S)NC1C=CS(=O)(=O)C1` (configuration not stated): the EC50 is > 100 µM (inactive).

Regarding `O=C(CN1C(=O)/C(=C/c2ccco2)SC1=S)Nc1ccc(C(=O)O)c(O)c1`, the EC50 is > 100 µM (inactive).

With `O=C(N/N=C/c1ccc(F)cc1)c1cc(O)c(O)c(O)c1`, the EC50 is > 100 µM (inactive).
